Measurements from ChEMBL document CHEMBL3244144, “Piperidylalkylindoles. 1. Hypotensive activity of 3-[2-(phenoxypiperidyl)ethyl]indoles” (J Med Chem, 1978).
Active and inactive are the calls of the source. The rule behind the calls is not given here.

How the values were obtained:
Rattus norvegicus [1] = assay: Antihypertensive activity in spontaneous hypertensive rat assessed as change in systolic blood pressure at 100 mg/kg, po dosed at 0 hrs on day 1, 2 and 3 measured on day 1 by indirect tail-cuff method; format: functional, Artery
Rattus norvegicus [2] = assay: Antihypertensive activity in spontaneous hypertensive rat assessed as change in systolic blood pressure at 100 mg/kg, po dosed at 0 hrs on day 1, 2 and 3 measured on day 3 by indirect tail-cuff method; format: functional, Artery
Rattus norvegicus [3] = assay: Antihypertensive activity in spontaneous hypertensive rat assessed as change in systolic blood pressure at 50 mg/kg, po dosed at 0 hrs on day 1, 2 and 3 measured on day 3 by indirect tail-cuff method; format: functional, Artery
Rattus norvegicus [4] = assay: Toxicity in spontaneous hypertensive rat model at 100 mg/kg, po dosed at 0 hrs on day 1, 2 and 3 measured on day 3; format: organism-based; parameters: dose 100 mg/kg, route oral; conditions: in vivo

SMILES | Activity (Rattus norvegicus [1]) | Activity (Rattus norvegicus [2]) | Activity (Rattus norvegicus [1]; Artery) | Activity (Rattus norvegicus [2]; Artery) | other results
Fc1ccc(OC2CCN(CCc3c[nH]c4ccccc34)CC2)cc1 | -56 mmHg | -55 mmHg |  |  | 
COc1ccc2[nH]cc(C(=O)C(=O)N3CCC(Oc4ccc(F)cc4)CC3)c2c1 |  |  | inactive | inactive | 
Cc1ccc(OC2CCCN(C(=O)C(=O)c3c[nH]c4ccccc34)C2)cc1 (stereo not given) |  |  | inactive | inactive | 
Cc1cccc(OC2CCN(CCc3c[nH]c4ccccc34)CC2)c1 | -3 mmHg | -14 mmHg |  |  | 
Cc1ccccc1OC1CCN(C(=O)C(=O)c2c[nH]c3ccccc23)CC1 |  |  | inactive | inactive | 
Brc1ccc(OC2CCN(CCc3c[nH]c4ccccc34)CC2)cc1 | -49 mmHg | -59 mmHg |  |  | 
Cc1ccccc1OC1CCN(CCc2c[nH]c3ccccc23)CC1 | -7 mmHg | -8 mmHg |  |  | 
O=C(C(=O)N1CCC(Oc2ccc(F)cc2)CC1)c1c[nH]c2ccc(OCc3ccccc3)cc12 |  |  | inactive | inactive | 
O=C(C(=O)N1CCC(Oc2ccc(Cl)cc2)CC1)c1c[nH]c2ccccc12 |  |  | inactive | inactive | 
Cl.O=C(NC1CCN(CCc2c[nH]c3ccccc23)CC1)c1ccccc1 [INDORAMIN HYDROCHLORIDE] |  |  |  |  | Activity (Rattus norvegicus [3]): -79 mmHg
O=C(C(=O)N1CCC(Oc2ccccc2)CC1)c1c[nH]c2ccccc12 |  |  | inactive | inactive | 
O=C(C(=O)N1CCC(Oc2cccc(Cl)c2)CC1)c1c[nH]c2ccccc12 |  |  | inactive | inactive | 
Cc1[nH]c2ccccc2c1C(=O)C(=O)N1CCC(Oc2ccc(F)cc2)CC1 |  |  | inactive | inactive | 
FC(F)(F)c1ccc(OC2CCN(CCc3c[nH]c4ccccc34)CC2)cc1 | -24 mmHg |  |  |  | Activity (Rattus norvegicus [4]): Toxic
Cc1ccc(OC2CCN(CCc3c[nH]c4ccccc34)CC2)cc1 | -48 mmHg | -57 mmHg |  |  | 
COc1cc2[nH]c(C)c(C(=O)C(=O)N3CCC(Oc4ccc(C(F)(F)F)cc4)CC3)c2cc1OC |  |  | inactive | inactive | 
COc1cc2[nH]c(C)c(CCN3CCC(Oc4ccc(C(F)(F)F)cc4)CC3)c2cc1OC | -24 mmHg | -58 mmHg |  |  | 
COc1ccc2[nH]cc(CCN3CCC(Oc4ccc(F)cc4)CC3)c2c1 | -2 mmHg | -6 mmHg |  |  | 
Clc1cccc(OC2CCN(CCc3c[nH]c4ccccc34)CC2)c1 | -11.2 mmHg | -8 mmHg |  |  | 
Cc1cccc(OC2CCN(C(=O)C(=O)c3c[nH]c4ccccc34)CC2)c1 |  |  | inactive | inactive | 
Cc1ccc(OC2CCN(C(=O)C(=O)c3c[nH]c4ccccc34)CC2)cc1 |  |  | inactive | inactive | 
O=C(C(=O)N1CCC(Oc2ccc(F)cc2)CC1)c1c[nH]c2ccccc12 |  |  | inactive | inactive | 
O=C(C(=O)N1CCC(Oc2ccc(C(F)(F)F)cc2)CC1)c1c[nH]c2ccccc12 |  |  | inactive | inactive | 
c1ccc(OC2CCN(CCc3c[nH]c4ccccc34)CC2)cc1 | -10 mmHg | -31 mmHg |  |  | 
Cc1[nH]c2ccccc2c1CCN1CCC(Oc2ccc(F)cc2)CC1 | -18 mmHg |  |  |  | Activity (Rattus norvegicus [4]): Toxic
Clc1ccc(OC2CCN(CCc3c[nH]c4ccccc34)CC2)cc1 | -47 mmHg | -54 mmHg |  |  | 
Cc1ccc(OC2CCCN(CCc3c[nH]c4ccccc34)C2)cc1 (stereo not given) | -63 mmHg | -12 mmHg |  |  | 
Fc1ccc(OC2CCN(CCc3c[nH]c4ccc(OCc5ccccc5)cc34)CC2)cc1 | -2 mmHg | -16 mmHg |  |  | 
